From patent US12226446B2, “WS-635 uses thereof in medicine” (WATERSTONE PHARMACEUTICALS(WUHAN) CO., LTD., priority 2019, dated 2025)

Key:
[1] = target: P-glycoprotein (Homo sapiens, UniProt P08183); details: cited from earlier work
[2] = test system: ROS; test: brain ROS levels after anesthesia/surgery; set-up: species or system mice; details: mouse, in vivo
[3] = multiple animal species, cited from earlier work
[4] = test system: PSD-95; test: Western blot of brain PSD-95 after anesthesia/surgery; format: in vivo, mice; details: 26.4 mg/kg IP
Source text: 9-month-old C57BL/J6 female mice were adaptive in lab for 3 days. The mice were randomly assigned to the anesthesia/surgery group or control group by weight. […] Specifically, the inventors anesthetized each of the mice using 1.4% isoflurane in 100% oxygen in a transparent acrylic chamber. Fifteen minutes after the induction, the inventors moved the mouse out of the chamber. Isoflurane anesthesia was maintained via a cone device, and one 16-gauge needle was inserted into the cone near the nose of the mouse to monitor the concentration of isoflurane. […]
Brain Tissue Harvest, Lysis and Protein Quantification. […] Levels of interleukin-6 (IL-6) and postsynaptic density (PSD)-95 in the cortex and hippocampus of mice will be assessed. […] The lysates will be collected, centrifuged at 10,000 rpm for 5 minutes at 4° C., and quantified for total proteins by bicinchoninic acid (BCA) protein assay kit (Pierce, Iselin, NJ). […]
Western Blot Analysis. […] Western blot quantification was performed as described. Briefly, signal intensity was analyzed using a Bio-Rad (Hercules, CA) image program (Quantity One). The inventors quantified Western blots in two steps, first, the inventors used β-Actin levels to normalize (e.g., determine the ratio of PSD-95 to β-Actin amount) protein levels and control for loading differences in the total protein amount. […]

[5] = test system: stimulated Jurkat cells; details: cited from earlier work
[6] = test system: cytochrome P450 1A2; details: cited from earlier work
[7] = test system: synaptophysin; test: Western blot of brain synaptophysin after anesthesia/surgery; format: in vivo, mice; details: 26.4 mg/kg IP
[8] = test system: anesthesia/surgery-induced cognitive impairment; test: Fear Conditioning Test (FCT); format: in vivo, mice; details: 52.8 mg/kg IP; Tone test 48 hours, Context test 7 days after anesthesia/surgery; FIG. 6A-6D
Source text: (§1) 9-month-old C57BL/J6 female mice were adaptive in lab for 3 days. The mice were randomly assigned to the anesthesia/surgery group or control group by weight. […] Specifically, the inventors anesthetized each of the mice using 1.4% isoflurane in 100% oxygen in a transparent acrylic chamber. Fifteen minutes after the induction, the inventors moved the mouse out of the chamber. Isoflurane anesthesia was maintained via a cone device, and one 16-gauge needle was inserted into the cone near the nose of the mouse to monitor the concentration of isoflurane. The inventors made a longitudinal midline incision from the xiphoid to the 0.5 centimeter proximal pubic symphysis on the skin, abdominal muscles and peritoneum. The inventors then sutured the incision layer by layer with 5-0 Vicryl thread.
(§2) The inventors applied EMLA cream (2.5% lidocaine and 2.5% prilocaine) to the incision site at the end of the procedure, and then every eight hours until the euthanasia of the mice, to treat the pain associated with the incision. […]
The first tone test was performed at 90 minutes after the end of the pairing. […] The “freezing behavior” was analyzed by Any-Maze (freezing on threshold: 10; freezing off threshold: 20; minimum freezing duration: one second) (Stoelting). The percentage of freezing time was calculated by dividing the actual freezing time with the observed time (180 seconds).

[9] = test system: hepatitis C virus (HCV); details: two-drug combination, in vitro; cited from earlier work
[10] = test system: IL-6; test: brain IL-6 levels after anesthesia/surgery; set-up: species or system mice; details: mouse, in vivo
Procedure: Brain Tissue Harvest, Lysis and Protein Quantification. Different mice will be used for the harvest of brain tissue. Levels of interleukin-6 (IL-6) and postsynaptic density (PSD)-95 in the cortex and hippocampus of mice will be assessed. The brain tissues (cortex and hippocampus) of the mice will be harvested immediately at the end of the anesthesia/surgery by decapitation. The harvested brain tissues will be homogenized on ice using immunoprecipitation buffer (10 mM Tris-HCl, pH 7.4, 150 mM NaCl, 2 mM EDTA, 0.5% Nonidet P-40) plus protease inhibitors ([…]). The lysates will be collected, centrifuged at 10,000 rpm for 5 minutes at 4° C., and quantified for total proteins by bicinchoninic acid (BCA) protein assay kit (Pierce, Iselin, NJ). The brain tissues will then be subjected to Western Blot.

[11] = target: cyclophilin A (Homo sapiens, UniProt P62937); details: cited from earlier work
Chain of cyclophilin A (P62937 whole entry, species assumed): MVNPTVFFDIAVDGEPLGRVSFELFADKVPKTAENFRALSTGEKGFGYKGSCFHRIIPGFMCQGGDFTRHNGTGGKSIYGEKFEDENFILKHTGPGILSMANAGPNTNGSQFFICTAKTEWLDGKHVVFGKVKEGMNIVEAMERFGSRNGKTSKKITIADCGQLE

[12] = test system: calcineurin; details: at concentrations up to 2 μM; cited from earlier work
[13] = test system: cytochrome P450 2B6; details: cited from earlier work
[14] = test system: anesthesia/surgery-induced cognitive impairment; test: Barnes Maze Test; format: in vivo, mice; details: 26.4 mg/kg and 13.2 mg/kg IP; one week after anesthesia/surgery; FIG. 7A-7J
Source text: as §1, §2
One week after anesthesia/surgery, animals were subjected to Barnes maze to test their spatial learning and memory. […] The latency and number of errors to find the target box during each trial were recorded with the assistance of ANY-Maze video tracking system.

[15] = test system: ATP; test: brain ATP measurement after anesthesia/surgery; format: in vivo, mice; details: 26.4 mg/kg IP
Source text: as §1, with “thread. […]” for “thread.”
ATP Measurement. The levels of ATP in the cortex of mice (N=6 in each group) were determined by the ATP Colorimetric/Fluorometric Assay Kit following the protocol provided by the manufacturer (Abcam, Cambridge, MA). […] The amount of fluorescence will be measured and the levels of ATP in the experimental samples will be calculated from the standard curve made from samples containing a known amount of ATP.

[16] = test system: cytochrome P450 3A4; details: cited from earlier work
[17] = test system: stimulated human peripheral blood mononuclear cells; details: cited from earlier work
[18] = test system: hepatitis C virus (HCV); details: in vitro; cited from earlier work

Chain of P-glycoprotein (P08183 whole entry): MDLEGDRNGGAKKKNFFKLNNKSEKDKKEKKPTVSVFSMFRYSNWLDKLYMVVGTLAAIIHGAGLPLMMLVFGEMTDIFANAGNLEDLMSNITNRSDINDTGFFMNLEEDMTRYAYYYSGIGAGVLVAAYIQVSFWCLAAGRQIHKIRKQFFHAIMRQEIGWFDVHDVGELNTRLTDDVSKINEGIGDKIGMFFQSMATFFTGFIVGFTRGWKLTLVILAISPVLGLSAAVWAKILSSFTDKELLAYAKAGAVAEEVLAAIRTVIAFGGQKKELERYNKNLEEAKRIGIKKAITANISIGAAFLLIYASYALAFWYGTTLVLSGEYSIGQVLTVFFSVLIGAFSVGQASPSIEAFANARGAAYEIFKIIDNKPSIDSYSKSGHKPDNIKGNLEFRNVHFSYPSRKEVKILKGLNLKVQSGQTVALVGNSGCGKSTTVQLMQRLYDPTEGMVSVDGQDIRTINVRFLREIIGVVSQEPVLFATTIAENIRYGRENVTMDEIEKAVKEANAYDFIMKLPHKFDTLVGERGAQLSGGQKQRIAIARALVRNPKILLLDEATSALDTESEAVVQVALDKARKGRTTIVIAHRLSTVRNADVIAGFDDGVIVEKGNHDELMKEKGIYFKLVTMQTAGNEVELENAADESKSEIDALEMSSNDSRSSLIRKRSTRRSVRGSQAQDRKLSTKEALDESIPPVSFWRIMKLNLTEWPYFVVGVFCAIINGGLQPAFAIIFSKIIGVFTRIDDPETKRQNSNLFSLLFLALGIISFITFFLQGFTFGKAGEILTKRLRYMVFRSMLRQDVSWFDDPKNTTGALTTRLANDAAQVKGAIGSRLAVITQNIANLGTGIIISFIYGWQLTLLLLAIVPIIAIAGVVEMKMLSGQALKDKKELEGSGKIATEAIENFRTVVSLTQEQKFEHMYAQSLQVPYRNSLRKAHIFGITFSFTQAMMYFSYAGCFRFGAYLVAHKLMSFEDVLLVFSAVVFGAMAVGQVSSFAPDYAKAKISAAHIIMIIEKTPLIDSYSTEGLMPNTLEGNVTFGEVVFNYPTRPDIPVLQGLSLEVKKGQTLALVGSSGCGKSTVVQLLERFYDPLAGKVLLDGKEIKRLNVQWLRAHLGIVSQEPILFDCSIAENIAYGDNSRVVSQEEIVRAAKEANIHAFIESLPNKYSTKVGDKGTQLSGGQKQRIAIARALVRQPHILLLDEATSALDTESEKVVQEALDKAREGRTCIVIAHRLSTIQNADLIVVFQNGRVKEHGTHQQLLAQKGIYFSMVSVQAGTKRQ

For `C/C=C/C[C@@H](C)[C@@H](O)[C@H]1C(=O)N[C@@H](CC)C(=O)N(C)[C@H](SCCN(C)C)C(=O)N(C)[C@@H](CC(C)(C)O)C(=O)N[C@@H](C(C)C)C(=O)N(C)[C@@H](CC(C)C)C(=O)N[C@@H](C)C(=O)N[C@H](C)C(=O)N(C)[C@@H](CC(C)C)C(=O)N(C)[C@@H](CC(C)C)C(=O)N(C)[C@@H](C(C)C)C(=O)N1C` [WS-635, (3S,6S,9S,12R,15S,18S,21S,24S,27R,30S,33S)-27-((2-(dimethylamino)ethyl)thio)-30-ethyl-33-((1R,2R,E)-1-hydroxy-2-methylhex-4-en-1-yl)-24-(2-hydroxy-2-methylpropyl)-6,9,18-tri isobutyl-3,21-diisopropyl-1,4,7,10,12,15,19,25,28-nonamethyl-1,4,7,10,13,16,19,22,25,28,31-undecaazacyclotritriacontan-2,5,8,11,14,17,20,23,26,29,32-undecaone], the “inhibition of P-glycoprotein” value [1] is listed as “weak inhibitor”, the “substrate for P-glycoprotein” value [1] is listed as “poor substrate” and the “anesthesia/surgery-induced changes in brain levels of ROS” value [2] is listed as “attenuate”. For the same molecule, the oral bioavailability [3] was “orally bioavailable”, the “blood and liver concentrations of parent drug versus 50% effective dose in replicon assay” value ([3]; oral) was “exceeded the 50% effective dose” and the “anesthesia/surgery-induced decrease of PSD-95 level in cortex” value ([4]; cortex, FIG. 3) was “mitigate”. For the same molecule, the “anesthesia/surgery-induced decrease of PSD-95 level in hippocampus” value ([4]; hippocampus, FIG. 4) was “mitigate”, the “inhibition of interleukin-2 secretion compared with cyclosporine” value [5] was “weaker inhibitor” and the “induction of cytochrome P450 1A2” value [6] was “did not induce”. For the same molecule, the “anesthesia/surgery-induced decrease of synaptophysin level in cortex” value ([7]; cortex, FIG. 3) was “mitigate”, the “anesthesia/surgery-induced decrease of synaptophysin level in hippocampus” value ([7]; hippocampus, FIG. 4) was “mitigate” and the “anesthesia/surgery-induced reduction in freezing time” value [8] was “mitigated”. The “antiviral activity in combination with alpha interferon 2b” value [9] was “synergistic antiviral activity”, the “antiviral activity in combination with ribavirin” value [9] was “additive antiviral activity” and the “anesthesia/surgery-induced changes in brain levels of IL-6” value [10] was “attenuate”. For the same molecule, the “inhibition of peptidyl prolyl isomerase activity of cyclophilin A” value [11] was “nanomolar concentrations”, the “inhibition of calcineurin phosphatase activity” value [12] was “no detectable inhibition” and the “induction of cytochrome P450 2B6” value [13] was “did not induce”. For the same molecule, the “anesthesia/surgery-induced decrease in escape speed” value [14] was “mitigated”, the “anesthesia/surgery-induced increase in escape latency” value [14] was “mitigated” and the “anesthesia/surgery-induced decrease of ATP level in cortex” value ([15]; cortex, FIG. 5A) was “mitigate”. The “anesthesia/surgery-induced decrease of ATP level in hippocampus” value ([15]; hippocampus, FIG. 5B) was “mitigate”, the “induction of cytochrome P450 3A4” value [16] was “did not induce” and the “inhibition of interleukin-2 secretion compared with cyclosporine” value [17] was “weaker inhibitor”. The “suppression of HCV replication” value [18] was “potent suppression”.
